From the supplement of paper PMC10307832 come the findings set out here.

What all share (experiment): relative viability (nuclei count vs DMSO), 5 days (fraction); higher = more cells survive
Compound in the assay “KIN001-266 + Foretinib”: CCN1CCC(CC1)N2C=C(N=N2)CNC3=CC4=C(C(=CN=C4C(=C3)Cl)C#N)NC5=CC(=C(C=C5)F)Cl [KIN001-266] + COc1cc2c(Oc3ccc(NC(=O)C4(C(=O)Nc5ccc(F)cc5)CC4)cc3F)ccnc2cc1OCCCN1CCOCC1 [Foretinib] (partner 0.25 µM)
The method in brief: (§1)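 Relative viability equals treated-well nuclei counts divided by vehicle-well nuclei counts. Counts came from 4× images of lung cancer cell lines grown in 1536-well plates for 5 days after pin-tool dosing on the day after seeding. Dosing used one drug alone or a fixed anchor-drug dose plus five library-drug doses (not always all listed) in √10 steps, and values are medians of duplicate plates.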

Compound in the assay “KIN001-266 + Alpelisib”: CCN1CCC(CC1)N2C=C(N=N2)CNC3=CC4=C(C(=CN=C4C(=C3)Cl)C#N)NC5=CC(=C(C=C5)F)Cl [KIN001-266] + Cc1nc(NC(=O)N2CCC[C@H]2C(N)=O)sc1-c1ccnc(C(C)(C)C(F)(F)F)c1 [Alpelisib] (partner 2 µM)
The method in brief:
as §1

Compound in the assay “KIN001-266 + Pemetrexed”: CCN1CCC(CC1)N2C=C(N=N2)CNC3=CC4=C(C(=CN=C4C(=C3)Cl)C#N)NC5=CC(=C(C=C5)F)Cl [KIN001-266] + Nc1nc2[nH]cc(CCc3ccc(C(=O)N[C@@H](CCC(=O)O)C(=O)O)cc3)c2c(=O)[nH]1 [Pemetrexed] (partner 0.2 µM)
In short, it runs like this:
as §1

Compound in the assay “KIN001-266 + Olaparib”: CCN1CCC(CC1)N2C=C(N=N2)CNC3=CC4=C(C(=CN=C4C(=C3)Cl)C#N)NC5=CC(=C(C=C5)F)Cl [KIN001-266] + O=C(c1cc(Cc2n[nH]c(=O)c3ccccc23)ccc1F)N1CCN(C(=O)C2CC2)CC1 [Olaparib] (partner 8 µM)
The method in brief:
as §1

Turning to HCC-15, the relative viability with KIN001-266 + Foretinib (first compound 0.08 µM) is 0.913; with KIN001-266 + Foretinib (first compound 0.253 µM), 0.964; with KIN001-266 + Foretinib (first compound 0.8 µM) it was 0.886; with KIN001-266 + Foretinib (first compound 2.53 µM), 0.817; with KIN001-266 + Foretinib (first compound 8 µM), 0.707; with KIN001-266 + Alpelisib (first compound 0.08 µM), 0.867. Further, the relative viability worked out at 0.849 with KIN001-266 + Alpelisib (first compound 0.253 µM); 0.766 in the assay with KIN001-266 + Alpelisib (first compound 0.8 µM); 0.781 in the assay with KIN001-266 + Alpelisib (first compound 2.53 µM); 0.586 with KIN001-266 + Alpelisib (first compound 8 µM); 0.234 in the assay with KIN001-266 + Pemetrexed (first compound 0.08 µM); 0.222 in the assay with KIN001-266 + Pemetrexed (first compound 0.253 µM). Also, the relative viability with KIN001-266 + Pemetrexed (first compound 0.8 µM) was found to be 0.221; in the assay with KIN001-266 + Pemetrexed (first compound 2.53 µM) it was 0.206; with KIN001-266 + Pemetrexed (first compound 8 µM), 0.225; in the assay with KIN001-266 + Olaparib (first compound 0.08 µM), 0.743; in the assay with KIN001-266 + Olaparib (first compound 0.253 µM) it was 0.747; with KIN001-266 + Olaparib (first compound 0.8 µM), 0.64. Moreover, the relative viability turned out to be 0.651 with KIN001-266 + Olaparib (first compound 2.53 µM) and 0.511 with KIN001-266 + Olaparib (first compound 8 µM).

On to NCI-H647, for which the relative viability in the assay with KIN001-266 + Foretinib (first compound 0.08 µM) stood at 1.22; with KIN001-266 + Foretinib (first compound 0.253 µM) it was 1.22; with KIN001-266 + Foretinib (first compound 0.8 µM), 1.36; with KIN001-266 + Foretinib (first compound 2.53 µM) it was 1.16; with KIN001-266 + Foretinib (first compound 8 µM), 0.97; with KIN001-266 + Alpelisib (first compound 0.08 µM), 1.29. Further, the relative viability in the assay with KIN001-266 + Alpelisib (first compound 0.253 µM) was 1.3; with KIN001-266 + Alpelisib (first compound 0.8 µM), 1.11; in the assay with KIN001-266 + Alpelisib (first compound 2.53 µM) it was 1.11; with KIN001-266 + Alpelisib (first compound 8 µM) it was 0.928; with KIN001-266 + Pemetrexed (first compound 0.08 µM) it was 0.195; in the assay with KIN001-266 + Pemetrexed (first compound 0.253 µM), 0.216. The relative viability was determined as 0.181 in the assay with KIN001-266 + Pemetrexed (first compound 0.8 µM); 0.158 with KIN001-266 + Pemetrexed (first compound 2.53 µM); 0.198 with KIN001-266 + Pemetrexed (first compound 8 µM); 0.565 in the assay with KIN001-266 + Olaparib (first compound 0.08 µM); 0.516 in the assay with KIN001-266 + Olaparib (first compound 0.253 µM); 0.701 with KIN001-266 + Olaparib (first compound 0.8 µM). The relative viability in the assay with KIN001-266 + Olaparib (first compound 2.53 µM) came to 0.501; in the assay with KIN001-266 + Olaparib (first compound 8 µM), 0.301.

Turning to SW 1573, the relative viability with KIN001-266 + Foretinib (first compound 0.08 µM) amounted to 0.989; in the assay with KIN001-266 + Foretinib (first compound 0.253 µM), 0.787; in the assay with KIN001-266 + Foretinib (first compound 0.8 µM) it was 1.02; with KIN001-266 + Foretinib (first compound 2.53 µM), 0.915; in the assay with KIN001-266 + Foretinib (first compound 8 µM), 0.855; in the assay with KIN001-266 + Alpelisib (first compound 0.08 µM), 0.789. Besides, the relative viability with KIN001-266 + Alpelisib (first compound 0.253 µM) stood at 0.775; in the assay with KIN001-266 + Alpelisib (first compound 0.8 µM) it was 0.709; in the assay with KIN001-266 + Alpelisib (first compound 2.53 µM), 0.764; with KIN001-266 + Alpelisib (first compound 8 µM), 0.693; with KIN001-266 + Pemetrexed (first compound 0.08 µM) it was 0.809; with KIN001-266 + Pemetrexed (first compound 0.253 µM), 0.792. The relative viability in the assay with KIN001-266 + Pemetrexed (first compound 0.8 µM) stood at 0.94; with KIN001-266 + Pemetrexed (first compound 2.53 µM), 0.713; with KIN001-266 + Pemetrexed (first compound 8 µM), 0.751; with KIN001-266 + Olaparib (first compound 0.08 µM) it was 0.459; with KIN001-266 + Olaparib (first compound 0.253 µM), 0.5; in the assay with KIN001-266 + Olaparib (first compound 0.8 µM), 0.542. In addition, the relative viability with KIN001-266 + Olaparib (first compound 2.53 µM) came out at 0.404; in the assay with KIN001-266 + Olaparib (first compound 8 µM), 0.313.

NCI-H1651: the relative viability with KIN001-266 + Foretinib (first compound 0.08 µM) turned out to be 0.805; with KIN001-266 + Foretinib (first compound 0.253 µM) it was 0.71; with KIN001-266 + Foretinib (first compound 0.8 µM), 0.774; with KIN001-266 + Foretinib (first compound 2.53 µM), 0.757; with KIN001-266 + Foretinib (first compound 8 µM) it was 0.731; with KIN001-266 + Alpelisib (first compound 0.08 µM) it was 1.05. The relative viability with KIN001-266 + Alpelisib (first compound 0.253 µM) amounted to 0.949; with KIN001-266 + Alpelisib (first compound 0.8 µM), 1.01; in the assay with KIN001-266 + Alpelisib (first compound 2.53 µM), 0.99; with KIN001-266 + Alpelisib (first compound 8 µM), 0.865; in the assay with KIN001-266 + Pemetrexed (first compound 0.08 µM) it was 0.6; in the assay with KIN001-266 + Pemetrexed (first compound 0.253 µM), 0.535. For the same cell line, the relative viability was found to be 0.531 in the assay with KIN001-266 + Pemetrexed (first compound 0.8 µM); 0.514 in the assay with KIN001-266 + Pemetrexed (first compound 2.53 µM); 0.58 with KIN001-266 + Pemetrexed (first compound 8 µM); 0.185 in the assay with KIN001-266 + Olaparib (first compound 0.08 µM); 0.165 with KIN001-266 + Olaparib (first compound 0.253 µM); 0.175 with KIN001-266 + Olaparib (first compound 0.8 µM). For the same cell line, the values for the relative viability in the assay with KIN001-266 + Olaparib (first compound 2.53 µM) and with KIN001-266 + Olaparib (first compound 8 µM) were 0.15 and 0.167, respectively.

For NCI-H2023, the relative viability with KIN001-266 + Foretinib (first compound 0.08 µM) is 0.837; in the assay with KIN001-266 + Foretinib (first compound 0.253 µM) it was 0.959; with KIN001-266 + Foretinib (first compound 0.8 µM), 1.02; with KIN001-266 + Foretinib (first compound 2.53 µM) it was 0.919; in the assay with KIN001-266 + Foretinib (first compound 8 µM), 0.556; with KIN001-266 + Alpelisib (first compound 0.08 µM), 0.672. The relative viability with KIN001-266 + Alpelisib (first compound 0.253 µM) was determined as 0.64; with KIN001-266 + Alpelisib (first compound 0.8 µM) it was 0.588; in the assay with KIN001-266 + Alpelisib (first compound 2.53 µM), 0.598; with KIN001-266 + Alpelisib (first compound 8 µM), 0.618; in the assay with KIN001-266 + Pemetrexed (first compound 0.08 µM) it was 0.233; with KIN001-266 + Pemetrexed (first compound 0.253 µM), 0.192. In addition, the relative viability in the assay with KIN001-266 + Pemetrexed (first compound 0.8 µM) came to 0.296; with KIN001-266 + Pemetrexed (first compound 2.53 µM) it was 0.221; in the assay with KIN001-266 + Pemetrexed (first compound 8 µM) it was 0.201; with KIN001-266 + Olaparib (first compound 0.08 µM), 0.465; with KIN001-266 + Olaparib (first compound 0.253 µM) it was 0.489; with KIN001-266 + Olaparib (first compound 0.8 µM), 0.528. The values for the relative viability with KIN001-266 + Olaparib (first compound 2.53 µM) and with KIN001-266 + Olaparib (first compound 8 µM) were 0.47 and 0.411, respectively.
